Laboratory results taken from patent US7297353B2, “Use of anemonin for treating aseptic inflammations” (priority 2000, dated 2007).
Read-outs that look alike come from different tables or passages of the source.

What was measured:
IL-2 = test: Cytokine production from splenocytes, ConA stimulation, IL-2 (ELISA); format: cell-based, murine; conditions: 24 h
Experimental: (§1) For splenocyte cytokine production assay, 5×10^6 cells per well were inoculated into a 24-well tissue culture plate with ConA (5 mg/L) or Sac (1:10000) stimulation. Different concentrations of Anemonin were added in a final volume of 2 ml. Cells were incubated at 37° C., 5% CO2 for 24 h and supernatants were harvested, IFN-γ, IL-10, IL12 (p40) and IL-2 in supernatants were measured by the sandwich enzyme-linked immunosorbent assay (ELISA) as specified by the manufacturer (BD Bioscience pharmingen, US). Concentrations of the cytokine productions were calculated based on standard curves obtained from serial dilutions of murine cytokines (r IFN-γ, rIL-10, rIL12, rIL-2). As shown in Tables C-3 and C-4, high-dose Anemonin (1-100 μg/ml) inhibited all kinds of cytokine release induced by ConA or Sac.

IL-12(p40) = test: Cytokine production from splenocytes, Sac stimulation, IL-12(p40) (ELISA); format: cell-based, murine; conditions: 24 h
Experimental: as §1

[1] = system: B-lymphocytes from the whole spleen of mice; test: LPS-induced responsive proliferation of B-lymphocytes ([3H] thymidine); format: cell-based; conditions: for Proliferation of B-lymphoctes LPS stimulation Average of CPM values / Proliferation of B-lymphocytes LPS stimulation Average of CPM values: LPS at 10 μg/ml, 48 hours; for inhibition of LPS-induced responsive proliferation of B-lymphocytes: final concentration range from 1 μg/ml to 100 μg/ml
Experimental: 5.2.1. Mice were sacrificed by removing spondyle, spleen was cut off in a sterile condition and then ground to obtain single cell suspension. After erythrocytes were got rid of the remained cells were diluted to […] with RPMI-1640 culture solution containing 10% fetal bovine serum.
5.2.2. 200 μl solution in total volume (including 100 μl the cell suspension, 50 μl sample and 50 μl ConA or LPS) was dispensed on 96-well plate.
50 μl culture solution containing 10% fetal bovine serum, instead of 50 μl sample, was added as negative control, in which the total volume was also 200 μl.
5.2.3. The cell was cultured at 37° C. and under 5% CO2 in incubator for 48 hours, and [^3H] thymidine (1.9×10^4 Bq) was added to the plate at 25 μl/well 12 hours before the end of culture.
5.2.4. The culture was continued. The plates were then stored at −20° C. in refrigeratory after the culture. The thawed cells were collected to fiberglass membrane (Nitrocellose membrane) with cell collector when detecting. After the addition of Scintillation solution, the quantity of [^3H] thymidine incorporated into DNA of cells was detected by Beta counter (MicroBeta Trilux, PerkinElmer LifeSciences). The proliferation of lymphocytes was indicated by cpm value.
Effect of the medicament on LPS-induced responsive proliferation of B-lymphocytes was examined, said B-lymphocytes were from the whole spleen of mice. LPS at 10 μg/ml final concentration was used as the stimulator to induce responsive proliferation of B-lymphocytes from the whole spleen of ICR homogenous mice (cultured in vitro for 48 hours).

[2] = system: carrageenan-induced paw edema; test: Acute hind paw edema of rats induced by carrageenan; format: in vivo
Experimental: The animals were injected subcutaneously with carrageenan (10 μl of 1% solution in saline) into the right paw. Anti-inflammatory properties of external anemonin were studied by applying with various liniment solution of anemonin (0.125, 0.5, 2 mg/ml, 0.5 ml) for 2 h immediately after administration of carrageenan. The rats of control group were treated with the same volume of solvent (25% ethanol). The paw volumes of rats were measured at 0, 2 h, 3 h, 4 h, 5 h, 6 h after injection of carrageenan. The paw edema was represented by subtracting the volume of the untreated same paw from that of the treated paw.

[3] = system: dimethylbenene-induced ear swelling; test: Acute ear edema of mice induced by dimethylbenene; format: in vivo; conditions: for Ear swellin: 50 μl on ear, two hours after dimethylbenene
Experimental: The mice were randomly divided into 5 groups. Thirty minutes and sixty minutes after applying dimethylbenene (50 μl) to the anterior and posterior surfaces of the right ear, 25% ethanol (50 μl), the linimene solutions of anemonin (0.05, 0.5, 5 mg/ml, 50 μl) and FAA (a positive control) were applied on the same ears of mice respectively. The left ear was considered as control. Two hours after dimethylbenene application, mice were killed and both ears were removed. Circular sections were taken, using a 9 mm-diameter borer, and weighed. The increase in weight caused by the irritant was measured by subtracting the weight of the untreated left ear section from that of the treated right ear section.

## O=C1C=CC2(CCC23C=CC(=O)O3)O1 (centres unmarked) [Anemonin, anemonin]
IL-2; 0.001 μg/ml
  IL-2: 482 ± 7 pg/mL
IL-2; 0.01 μg/ml
  IL-2: 479 ± 5 pg/mL
IL-2; 0.1 μg/ml
  IL-2: 461 ± 2 pg/mL
IL-2; 1 μg/ml
  IL-2: 190 ± 2 pg/mL
IL-2; 10 μg/ml
  IL-2: 22 ± 1 pg/mL
IL-2; 100 μg/ml
  IL-2: 28 ± 1 pg/mL
IL-12(p40); 0.001 μg/ml
  IL-12(p40): 501 ± 6 pg/mL
IL-12(p40); 0.01 μg/ml
  IL-12(p40): 446 ± 0 pg/mL
IL-12(p40); 0.1 μg/ml
  IL-12(p40): 444 ± 3 pg/mL
IL-12(p40); 1 μg/ml
  IL-12(p40): 293 ± 0 pg/mL
IL-12(p40); 10 μg/ml
  IL-12(p40): 86 ± 6 pg/mL
IL-12(p40); 100 μg/ml
  IL-12(p40): 72 ± 4 pg/mL
[1]; 0.001 μg/ml, Table B-6
  Proliferation of B-lymphoctes LPS stimulation Average of CPM values: 39272 CPM
[1]; 0.01 μg/ml, Table B-6
  Proliferation of B-lymphoctes LPS stimulation Average of CPM values: 39551 CPM
[1]; 0.1 μg/ml, Table B-6
  Proliferation of B-lymphoctes LPS stimulation Average of CPM values: 39615 CPM
[1]; 1 μg/ml, Table B-5
  Proliferation of B-lymphocytes LPS stimulation Average of CPM values: 10137 CPM
[1]; 1 μg/ml, Table B-6
  Proliferation of B-lymphoctes LPS stimulation Average of CPM values: 32154 CPM
[1]; 10 μg/ml, Table B-5
  Proliferation of B-lymphocytes LPS stimulation Average of CPM values: 190 CPM
[1]; 10 μg/ml, Table B-6
  Proliferation of B-lymphoctes LPS stimulation Average of CPM values: 40840 CPM
[1]; 100 μg/ml, Table B-5
  Proliferation of B-lymphocytes LPS stimulation Average of CPM values: 164 CPM
[1]; 100 μg/ml, Table B-6
  Proliferation of B-lymphoctes LPS stimulation Average of CPM values: 24523 CPM
[1]; Mus musculus, 0.001 μg/ml, LPS stimulation, Table B-6, read-out: General assess of activity Enhancement/Inhibition
  inhibition at 0.001 µg/mL: -7%
[1]; Mus musculus, 0.01 μg/ml, LPS stimulation, Table B-6, read-out: General assess of activity Enhancement/Inhibition
  inhibition at 0.01 µg/mL: -8%
[1]; Mus musculus, 0.1 μg/ml, LPS stimulation, Table B-6, read-out: General assess of activity Enhancement/Inhibition
  inhibition at 0.1 µg/mL: -8%
[1]; Mus musculus, 1 μg/ml, LPS stimulation, Table B-5, read-out: General assess of activity Enhancement/Inhibition
  inhibition at 1 µg/mL: 33%
[1]; Mus musculus, 1 μg/ml, LPS stimulation, Table B-6, read-out: General assess of activity Enhancement/Inhibition
  inhibition at 1 µg/mL: 13%
[1]; Mus musculus, 10 μg/ml, LPS stimulation, Table B-5, read-out: General assess of activity Enhancement/Inhibition
  inhibition at 10 µg/mL: 99%
[1]; Mus musculus, 10 μg/ml, LPS stimulation, Table B-6, read-out: General assess of activity Enhancement/Inhibition
  inhibition at 10 µg/mL: -11%
[1]; Mus musculus, 100 μg/ml, LPS stimulation, Table B-5, read-out: General assess of activity Enhancement/Inhibition
  inhibition at 100 µg/mL: 99%
[1]; Mus musculus, 100 μg/ml, LPS stimulation, Table B-6, read-out: General assess of activity Enhancement/Inhibition
  inhibition at 100 µg/mL: 33%
[1]
  inhibition of LPS-induced responsive proliferation of B-lymphocytes: sharply inhibited
[1]; listed as anemonin
  inhibition of LPS-induced responsive proliferation of B-lymphocytes: remarkably inhibited
[2]; 0.125 mg/ml liniment, 2 h
  Paw edema: 0.24 ± 0.06 mL
[2]; 0.125 mg/ml liniment, 3 h
  Paw edema: 0.20 ± 0.09 mL
[2]; 0.125 mg/ml liniment, 4 h
  Paw edema: 0.33 ± 0.08 mL
[2]; 0.125 mg/ml liniment, 5 h
  Paw edema: 0.36 ± 0.11 mL
[2]; 0.125 mg/ml liniment, 6 h
  Paw edema: 0.39 ± 0.08 mL
[2]; 0.5 mg/ml liniment, 2 h
  Paw edema: 0.24 ± 0.13 mL
[2]; 0.5 mg/ml liniment, 3 h
  Paw edema: 0.21 ± 0.08 mL
[2]; 0.5 mg/ml liniment, 4 h
  Paw edema: 0.25 ± 0.07 mL
[2]; 0.5 mg/ml liniment, 5 h
  Paw edema: 0.35 ± 0.10 mL
[2]; 0.5 mg/ml liniment, 6 h
  Paw edema: 0.40 ± 0.08 mL
[2]; 2 mg/ml liniment, 0.5 ml for 2 h, 2 h after carrageenan
  Paw edema: 0.25 ± 0.08 mL
[2]; 2 mg/ml liniment, 3 h
  Paw edema: 0.16 ± 0.08 mL
[2]; 2 mg/ml liniment, 4 h
  Paw edema: 0.25 ± 0.07 mL
[2]; 2 mg/ml liniment, 5 h
  Paw edema: 0.30 ± 0.06 mL
[2]; 2 mg/ml liniment, 6 h
  Paw edema: 0.31 ± 0.10 mL
[2]; liniment 0.125, 0.5, 2 mg/ml, dose-dependent manner
  paw edema development: significantly reduced
[3]; 0.05 mg/ml liniment
  Ear swellin: 18 ± 7 mg
[3]; 0.5 mg/ml liniment
  Ear swellin: 16 ± 4 mg
[3]; 5 mg/ml liniment
  Ear swellin: 12 ± 4 mg
[3]; 0.05-5 mg/ml applied
  ear edema formation: inhibited in a dose-dependent manner
[3]; doses of 2.5-25 μg/ear
  inhibitory effect on ear edema: statistically significant
